According to the NIST ThermoML archive (doi:10.1021/je0496140):

Experiments:
[1] = 101.33 kPa, Liquid
[2] = xn = mol fraction of the nth substance listed; settings: 101.33 kPa, Liquid

CCCCO [butan-1-ol]
[1]
Settings | mass density [kg/m3] | viscosity [mPa·s]
288.15 K | 813.42 | 3.346
298.15 K | 805.4 | 2.56
308.15 K | 798.14 | 1.991
318.15 K | 790.19 | 1.569

CCCCCl [1-chlorobutane] + CC(C)CO
[2]
Settings | mass density [kg/m3] | viscosity [mPa·s]
288.15 K, x2 = 0.0369 | 888.52 | –
288.15 K, x2 = 0.0769 | 885.16 | –
288.15 K, x2 = 0.1003 | – | 0.511
288.15 K, x2 = 0.1526 | 878.94 | –
288.15 K, x2 = 0.1993 | – | 0.568
288.15 K, x2 = 0.2287 | 872.74 | –
288.15 K, x2 = 0.2853 | 868.15 | –
288.15 K, x2 = 0.2979 | – | 0.654
288.15 K, x2 = 0.3791 | 860.52 | –
288.15 K, x2 = 0.3954 | – | 0.784
288.15 K, x2 = 0.4421 | 855.33 | –
288.15 K, x2 = 0.496 | – | 0.948
288.15 K, x2 = 0.5564 | 845.76 | –
288.15 K, x2 = 0.5739 | 844.3 | –
288.15 K, x2 = 0.5936 | – | 1.198
288.15 K, x2 = 0.625 | 839.91 | –
288.15 K, x2 = 0.6843 | 834.73 | –
288.15 K, x2 = 0.6894 | – | 1.57
288.15 K, x2 = 0.7309 | 830.64 | –
288.15 K, x2 = 0.7517 | 828.8 | –
288.15 K, x2 = 0.7555 | 828.45 | –
288.15 K, x2 = 0.7567 | 828.35 | –
288.15 K, x2 = 0.7923 | – | 2.196
288.15 K, x2 = 0.849 | 819.9 | –
288.15 K, x2 = 0.8912 | – | 3.098
288.15 K, x2 = 0.9196 | 813.2 | –
288.15 K, x2 = 0.9806 | 807.26 | –
298.15 K, x2 = 0.1003 | – | 0.454
298.15 K, x2 = 0.1993 | – | 0.499
298.15 K, x2 = 0.2979 | – | 0.567
298.15 K, x2 = 0.3954 | – | 0.663
298.15 K, x2 = 0.496 | – | 0.787
298.15 K, x2 = 0.5936 | – | 0.97
298.15 K, x2 = 0.6894 | – | 1.23
298.15 K, x2 = 0.7923 | – | 1.669
298.15 K, x2 = 0.8912 | – | 2.284
308.15 K, x2 = 0.1003 | – | 0.408
308.15 K, x2 = 0.1006 | 861.12 | –
308.15 K, x2 = 0.1959 | 853.68 | –
308.15 K, x2 = 0.1993 | – | 0.445
308.15 K, x2 = 0.277 | 847.47 | –
308.15 K, x2 = 0.2979 | – | 0.497
308.15 K, x2 = 0.3894 | 838.94 | –
308.15 K, x2 = 0.3954 | – | 0.574
308.15 K, x2 = 0.4895 | 831.33 | –
308.15 K, x2 = 0.496 | – | 0.663
308.15 K, x2 = 0.5863 | 823.9 | –
308.15 K, x2 = 0.5936 | – | 0.801
308.15 K, x2 = 0.6894 | – | 0.986
308.15 K, x2 = 0.6914 | 815.7 | –
308.15 K, x2 = 0.7923 | – | 1.295
308.15 K, x2 = 0.7941 | 807.44 | –
308.15 K, x2 = 0.8912 | – | 1.724
308.15 K, x2 = 0.8989 | 798.78 | –
318.15 K, x2 = 0.0905 | 850.62 | –
318.15 K, x2 = 0.1003 | – | 0.369
318.15 K, x2 = 0.1869 | 843.28 | –
318.15 K, x2 = 0.1993 | – | 0.397
318.15 K, x2 = 0.2712 | 837.05 | –
318.15 K, x2 = 0.2979 | – | 0.44
318.15 K, x2 = 0.3772 | 829.29 | –
318.15 K, x2 = 0.3954 | – | 0.498
318.15 K, x2 = 0.4806 | 821.73 | –
318.15 K, x2 = 0.496 | – | 0.567
318.15 K, x2 = 0.5812 | 814.29 | –
318.15 K, x2 = 0.5936 | – | 0.682
318.15 K, x2 = 0.6819 | 806.85 | –
318.15 K, x2 = 0.6894 | – | 0.808
318.15 K, x2 = 0.7816 | 799.34 | –
318.15 K, x2 = 0.7923 | – | 1.025
318.15 K, x2 = 0.8896 | 791.03 | –
318.15 K, x2 = 0.8912 | – | 1.33

CCC(C)O (stereo not drawn) [butan-2-ol]
[1]
Settings | mass density [kg/m3] | viscosity [mPa·s]
288.15 K | 810.72 | 4.509
298.15 K | 801.82 | 3.035
308.15 K | 794.07 | 2.111
318.15 K | 785.15 | 1.523

CC(C)CO [2-methyl-1-propanol]
[1]
Settings | mass density [kg/m3] | viscosity [mPa·s]
288.15 K | 805.47 | 4.805
298.15 K | 797.37 | 3.435
308.15 K | 790.1 | 2.508
318.15 K | 781.99 | 1.87

CCCCCl [1-chlorobutane]
[1]
Settings | mass density [kg/m3] | viscosity [mPa·s]
288.15 K | 891.87 | 0.477
298.15 K | 880.18 | 0.429
303.15 K | 875.19 | 0.409
308.15 K | 869.64 | 0.39
313.15 K | 863.94 | 0.372
318.15 K | 858.31 | 0.354

CC(C)(C)O [2-methylpropan-2-ol]
[1]
Settings | mass density [kg/m3] | viscosity [mPa·s]
298.15 K | 779.96 | 4.433
303.15 K | 775.3 | 3.355
308.15 K | 770.19 | 2.611
313.15 K | 764.83 | 2.074
318.15 K | 759.52 | 1.685
